Laboratory results: US8518958B2, “Pyrido [2,3-D] pyrimidines and their use as kinase inhibitors” (Forma Therapeutics, Inc., priority 2006, dated 2013)

Experiments:
HT-29 tumor cells = assay: Anti-proliferative activity, SRB assay; type: cell-based, human; settings: Homo sapiens, HT-29, 72 h, 72 hours exposure, read-out: CELLULAR IC50 HT-29
Protocol: We observed the surprising finding that compounds of the invention were useful in inhibiting proliferation of HT-29 tumor cells (see Table 3).
3,000-15,000 cells/well were exposed to the test compounds at various concentrations appropriate to determine an IC50, for 72 hours, and cell proliferation was measured using the SRB assay according to Shekan et al (J Natl Cancer Inst (1990) 82, 1107-112) in order to estimate the IC50 values shown in Table 3. Briefly, cells were plated in 96 well dishes 24 hours prior to compound addition. The assay was terminated with the addition of cold TCA to a final concentration of 10% and the plates were incubated for one hour at 4° C. The plates were then washed 5 times with water and 100 μl of a Sulforhodamine B solution (4%) was added to each well. The plate was then incubated for 10 minutes at room temperature before removal of unbound dye by washing with 1% acetic acid. The bound dye was solubilized with 10 mM Trizma base and the absorbance read at OD570. Inhibitory activity of the compounds was calculated as % inhibition of cell proliferation compared to cells treated with the solvent (DMSO).

B-Raf delta1-415 = B-Raf delta1-415 (Homo sapiens, UniProt P15056); assay: B-Raf kinase inhibition (MAPH filter plate, 33P-ATP, MEK1 substrate); settings: read-out: Biochemical IC50 B-Raf
Text: We characterized the in vitro inhibitory activity against protein kinases of compounds of the present invention by determining their IC50 values (see Table 2).
Kinase: B-Raf delta1-415 (e.g., Upstate Cat. No. 14-530)
Reaction Temperature: room temperature
Assay Plate: 96 well U bottom plate (Greiner, 650161)
MultiScreen-PH Plate: 96 well MAPH Filter Plates (Millipore, MAPHNOB50)
Filter Washing Solution: 0.75% H3PO4
Szintilation Liquid: Supermix Liquid Szintillator (PerkinElmer, 1200-439)
Negative Control (C−): 100 mM EDTA, no Inhibitor
Positive Control (C+): no Inhibitor
Reaction Buffer: 20 mM Mops, pH 7.0 • 10 mM MgCl2 • 0.4 mM MnCl2 • 100 mM NaCl • 1 mM DTT • 0.01% NP40
Final Assay Concentrations:
Kinase: Kinase conc. yielding 50% substrate turnover as determined in titration experiment.
Adenosine 5′-[γ-^33P]triphosphate: 12.5 μCi/ml (Amersham Biosciences, BF1000)
Pipetting Sequence: • 1) Add 10 μl 4-fold concentrated substrate in 3-fold concentrated reaction buffer to each well of assay plate • 2) Add 10 μl 4-fold concentrated inhibitor in 4% DMSO in H2O to each well except to C− and C+ wells (starting point: final inhibitor concentration 10 μM; IC50 determination based on dilution series) • 3) Add 10 μl 4% DMSO in H2O to C− and C+ wells • 4) Add 10 μl 500 mM EDTA in H2O to C− wells • 5) Add 10 μl 50 μCi/ml adenosine 5′-[γ-^33P]triphosphate in H2O+4-fold cold ATP to each well • 6) Add 10 μl 4-fold concentrated kinase in reaction buffer to each well • 7) Incubate 1 hr at room temperature • 8) Add 10 μl 50 mM EDTA in H2O to each well except to C− wells • 9) Prepare MAPH plates by adding 200 μl 0.75% H3PO4 to each well • 10) Exhaust 0.75% H3PO4 using Millipore vacuum station • 11) Add 60 μl 0.75% H3PO4 to each well of MAPH filter plate • 12) Transfer 30 μl sample per well from assay plate to corresponding well of MAPH filter plate • 13) Incubate 30 min at room temperature • 14) Wash each well of MAPH filter plates 3× with 200 μl 0.75% H3PO4 using Millipore vacuum station • 15) Add 20 μl scintillation liquid to each well of MAPH filter plate • 16) Seal MAPH filter plate • 17) Store MAPH filter plate 30 min in darkness • 18) Quantify radioactivity using scintillation counter (MicroBeta, Perkin-Elmer)

B-Raf delta1-415, sequence (P15056 416-766): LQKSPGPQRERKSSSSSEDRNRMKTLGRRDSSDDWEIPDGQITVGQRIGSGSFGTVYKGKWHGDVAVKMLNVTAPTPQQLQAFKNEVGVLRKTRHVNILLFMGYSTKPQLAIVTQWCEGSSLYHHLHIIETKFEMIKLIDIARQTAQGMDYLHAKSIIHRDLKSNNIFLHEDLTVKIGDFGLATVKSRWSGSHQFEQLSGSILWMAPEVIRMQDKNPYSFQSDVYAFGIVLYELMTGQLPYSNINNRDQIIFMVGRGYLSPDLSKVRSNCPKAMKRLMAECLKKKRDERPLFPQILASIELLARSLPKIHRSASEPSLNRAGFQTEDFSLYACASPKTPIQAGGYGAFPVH

| IC50 (HT-29 tumor cells) [nM] | IC50 (B-Raf delta1-415) [nM] | Structure (SMILES) |
| --- | --- | --- |
| < 1000 | < 100 | COn1c(=O)c(-c2c(F)cccc2Cl)cc2cnc(Nc3ccc(N4CCNCC4)c(F)c3)nc21 [Compound 211, 6-(2-Chloro-6-fluorophenyl)-2-(3-fluoro-4-piperazinophenyl)-amino-8-methoxy-pyrido[2,3-d]pyrimidin-7-one] |
| < 10000 | < 500 | COn1c(=O)c(-c2c(Cl)cccc2Cl)cc2cnc(NCCO)nc21 [Compound 102, 6-(2,6-Dichlorophenyl)-2-hydroxyethylamino-8-methoxy-pyrido[2,3-d]pyrimidin-7-one] |
| < 1000 | < 500 | COn1c(=O)c(-c2c(Cl)cccc2Cl)cc2cnc(Nc3cc(C(=O)N(C)CCOC(=O)C(C)(C)C)n(C)c3)nc21 [Compound 140, 6-(2,6-Dichlorophenyl)-8-methoxy-2-(5-N-(2-(2,2-dimethylpropanoyl)oxyethyl)-N-methyl-aminocarbonyl-1-methyl-pyrrol-3-yl)-amino-pyrido[2,3-d]pyrimidin-7-one] |
| < 10000 | > 1000 | O=c1ccc2cnc(Nc3ccc(N4CCOCC4)cc3)nc2n1OC1CCCC1 [Compound 226] |
| < 1000 | < 500 | COn1c(=O)c(-c2c(Cl)cccc2Cl)cc2cnc(Nc3cc(C(=O)NCCN4CCCC4)n(C)c3)nc21 [Compound 94, 6-(2,6-Dichlorophenyl)-8-methoxy-2-(5-(2-pyrrolidinoethyl)aminocarbonyl-1-methyl-pyrrol-3-yl)-amino-pyrido[2,3-d]pyrimidin-7-one] |
| < 1000 | < 100 | COn1c(=O)c(-c2c(Cl)cccc2Cl)cc2cnc(Nc3cccc(NS(C)(=O)=O)c3)nc21 [Compound 119, 6-(2,6-Dichlorophenyl)-8-methoxy-2-(3-methylsulfonylaminophenyl)-amino-pyrido[2,3-d]pyrimidin-7-one] |
| < 1000 | < 500 | O=c1c(-c2c(Cl)cccc2Cl)cc2cnc(Nc3ccccc3)nc2n1OCc1cccnc1 [Compound 165, 6-(2,6-Dichlorophenyl)-2-phenylamino-8-(pyrid-3-ylmethyl)oxy-pyrido[2,3-d]pyrimidin-7-one] |
| < 1000 | < 500 | COn1c(=O)c(-c2c(Cl)cccc2Cl)cc2cnc(Nc3cc(C(=O)N(C)CCOC(=O)c4cccnc4)n(C)c3)nc21 [Compound 159] |
| < 1000 | < 100 | COn1c(=O)c(-c2c(Cl)cccc2Cl)cc2cnc(Nc3ccc(CN4CC[C@@H](O)C4)cc3)nc21 [Compound 179, 6-(2,6-Dichlorophenyl)-2-(4-(3-(R)-hydroxypyrrolidinomethyl)phenyl)-amino-8-methoxy-pyrido[2,3-d]pyrimidin-7-one] |
| < 1000 | < 500 | COn1c(=O)c(-c2c(Cl)cccc2Cl)cc2cnc(Nc3cc(C(=O)N(C)CCOC(=O)c4ccccc4)n(C)c3)nc21 [Compound 141] |
| < 1000 | < 100 | CCCN1CCN(c2ccc(Nc3ncc4cc(-c5c(Cl)cccc5Cl)c(=O)n(OC)c4n3)cc2)CC1 [Compound 204, 6-(2,6-Dichlorophenyl)-8-methoxy-2-(4-(4-propylpiperazino)phenyl)-amino-pyrido[2,3-d]pyrimidin-7-one] |
| < 1000 | < 500 | CCN(CC)CCNC(=O)c1cc(Nc2ncc3cc(-c4c(Cl)cccc4Cl)c(=O)n(OC)c3n2)cn1C [Compound 81, 6-(2,6-Dichlorophenyl)-2-(5-(2-diethylaminoethyl)aminocarbonyl-1-methyl-pyrrol-3-yl)-amino-8-methoxy-pyrido[2,3-d]pyrimidin-7-one] |
| > 10000 | > 10000 | CC(C)On1c(=O)c(-c2ccccc2Cl)cc2cnc(Nc3ccccc3)nc21 [Compound 65] |
| < 1000 | < 100 | COn1c(=O)c(-c2c(F)cccc2Cl)cc2cnc(Nc3ccc(N4CCNCC4)c(CO)c3)nc21 [Compound 218, 6-(2-Chloro-6-fluorophenyl)-8-methoxy-2-(3-hydroxymethyl-4-piperazinophenyl)-amino-pyrido[2,3-d]pyrimidin-7-one] |
| < 1000 | < 500 | O=c1c(-c2c(Cl)cccc2Cl)cc2cnc(Nc3ccc(N4CCNCC4)cc3)nc2n1OCC1CCOCC1 [Compound 202, 6-(2,6-Dichlorophenyl)-8-(tetrahydropyran-4-ylmethyl)oxy-2-(4-piperazinophenyl)-amino-pyrido[2,3-d]pyrimidin-7-one] |
| < 1000 | < 500 | O=c1c(-c2c(F)cccc2Cl)cc2cnc(Nc3ccc(N4CCOCC4)cc3)nc2n1OCC1CCC1 [Compound 172] |
| < 10000 | > 1000 | COn1c(=O)c(-c2c(Cl)cccc2Cl)cc2cnc(Nc3ccc(C(F)(F)F)c(Cl)c3)nc21 [Compound 133, 2-(3-Chloro-4-trifluoromethylphenyl)-amino-6-(2,6-dichlorophenyl)-8-methoxy-pyrido[2,3-d]pyrimidin-7-one] |
| < 1000 | < 100 | COc1cc(Nc2ncc3cc(-c4c(F)cccc4Cl)c(=O)n(OC)c3n2)ccc1N1CCNCC1 [Compound 214, 6-(2-Chloro-6-fluorophenyl)-8-methoxy-2-(3-methoxy-4-piperazinophenyl)-amino-pyrido[2,3-d]pyrimidin-7-one] |
| < 1000 | < 500 | COn1c(=O)c(-c2c(Cl)cccc2Cl)cc2cnc(Nc3ccc(Cn4cncn4)cc3)nc21 [Compound 104, 6-(2,6-Dichlorophenyl)-8-methoxy-2-(4-(1,2,4-triazol-1-yl)methylphenyl)-amino-pyrido[2,3-d]pyrimidin-7-one] |
| < 10000 | < 500 | COn1c(=O)c(-c2c(Cl)cccc2Cl)cc2cnc(Nc3cc[nH]n3)nc21 [Compound 88, 6-(2,6-Dichlorophenyl)-8-methoxy-2-(pyrazol-3-yl)-amino-pyrido[2,3-d]pyrimidin-7-one] |
| < 1000 | < 100 | CNC(=O)c1cccc(Nc2ncc3cc(-c4c(Cl)cccc4Cl)c(=O)n(OC)c3n2)c1 [Compound 131, 6-(2,6-Dichlorophenyl)-8-methoxy-2-(3-methylaminocarbonylphenyl)-amino-pyrido[2,3-d]pyrimidin-7-one] |
| < 10000 | < 500 | COn1c(=O)c(-c2c(Cl)cccc2Cl)cc2cnc(NCCOC(=O)[C@@H](N)C(C)C)nc21 [Compound 109, 2-((2-(S)-2-Amino-3-methylbutanoyloxy)ethyl)-amino-6-(2,6-dichlorophenyl)-8-methoxy-pyrido[2,3-d]pyrimidin-7-one] |
| < 10000 | < 100 | COn1c(=O)c(-c2c(C)cccc2C)cc2cnc(Nc3cccnc3)nc21 [Compound 114, 6-(2,6-Dimethylphenyl)-8-methoxy-2-pyrid-3-ylamino-pyrido[2,3-d]pyrimidin-7-one] |
| < 1000 | < 100 | O=c1c(-c2c(F)cccc2Cl)cc2cnc(Nc3ccc(N4CCOCC4)cc3)nc2n1OCC1CCOCC1 [Compound 143] |
| < 1000 | < 100 | COn1c(=O)c(-c2c(F)cccc2Cl)cc2cnc(Nc3ccc(N4CCNCC4)c(C#N)c3)nc21 [Compound 213, 6-(2-Chloro-6-fluorophenyl)-8-methoxy-2-(3-cyano-4-piperazinophenyl)-amino-pyrido[2,3-d]pyrimidin-7-one] |
| < 1000 | < 500 | COn1c(=O)c(-c2c(Cl)cccc2Cl)cc2cnc(Nc3cc(C(=O)NCCOC(=O)[C@@H](N)C(C)C)n(C)c3)nc21 [Compound 112, 2-(5-(2-(2-(S)-2-Amino-3-methylbutanoyloxy)ethyl)aminocarbonyl-1-methyl-pyrrol-3-yl)-amino-6-(2,6-dichlorophenyl)-8-methoxy-pyrido[2,3-d]pyrimidin-7-one] |
